Measured values: PMC5666756, “Fascaplysin Exerts Anti-Cancer Effects through the Downregulation of Survivin and HIF-1α and Inhibition of VEGFR2 and TRKA” (International Journal of Molecular Sciences, 2017)

Assays:
Format in all cases: biochemical
[1] = target: T1, VEGFR3 (Homo sapiens, UniProt P35916); test: high-throughput kinase screening assay (IC50, Figure S4)
T1 construct: gene FLT4

[2] = target: T2, TRKA (tropomyosin-related kinase A) (Homo sapiens, UniProt P04629); test: radiometric kinase assay ([γ-33P]ATP), IC50 at several ATP concentrations, Lineweaver-Burk
T2 construct: gene NTRK1; recombinant human cytoplasmic domain (aa 441–796), C-terminal His-tagged

[3] = target: T3, VEGFR2 (vascular endothelial growth factor receptor 2) (Homo sapiens, UniProt P35968); test: as above
T3 construct: gene KDR
Source text: radiometric kinase assay ([γ-33P]ATP), IC50 at several ATP concentrations, Lineweaver-Burk on VEGFR2 (vascular endothelial growth factor receptor 2) | fascaplysin is noncompetitive with respect to ATP against TRKA and VEGFR2

Measured: IC50

T3 sequence (P35968 789-1356): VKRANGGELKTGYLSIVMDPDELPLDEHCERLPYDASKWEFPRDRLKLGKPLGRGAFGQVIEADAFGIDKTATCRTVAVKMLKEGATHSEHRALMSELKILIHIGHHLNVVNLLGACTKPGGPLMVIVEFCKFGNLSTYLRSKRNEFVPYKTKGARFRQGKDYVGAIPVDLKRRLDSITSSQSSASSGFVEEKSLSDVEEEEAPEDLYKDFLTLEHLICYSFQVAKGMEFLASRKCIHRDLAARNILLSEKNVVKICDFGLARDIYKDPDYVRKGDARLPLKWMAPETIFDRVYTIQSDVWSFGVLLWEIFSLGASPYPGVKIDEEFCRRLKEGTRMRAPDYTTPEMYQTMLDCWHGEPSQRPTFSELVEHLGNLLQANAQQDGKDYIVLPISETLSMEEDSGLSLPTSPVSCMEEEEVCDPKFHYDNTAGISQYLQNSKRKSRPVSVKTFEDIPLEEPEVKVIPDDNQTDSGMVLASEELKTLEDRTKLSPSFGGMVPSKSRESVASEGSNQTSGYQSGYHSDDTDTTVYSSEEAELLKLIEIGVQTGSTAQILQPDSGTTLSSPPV
T2 sequence (P04629 441-796): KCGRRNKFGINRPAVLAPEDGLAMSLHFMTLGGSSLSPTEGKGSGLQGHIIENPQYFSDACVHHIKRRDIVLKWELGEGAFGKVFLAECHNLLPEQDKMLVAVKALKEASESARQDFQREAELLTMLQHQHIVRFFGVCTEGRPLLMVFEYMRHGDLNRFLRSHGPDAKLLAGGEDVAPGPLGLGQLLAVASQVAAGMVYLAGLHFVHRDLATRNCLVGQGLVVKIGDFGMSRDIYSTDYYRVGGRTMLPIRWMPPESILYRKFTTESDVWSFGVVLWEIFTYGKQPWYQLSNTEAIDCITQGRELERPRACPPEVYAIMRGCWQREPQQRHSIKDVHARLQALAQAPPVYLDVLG
T1 sequence (P35916 25-1363): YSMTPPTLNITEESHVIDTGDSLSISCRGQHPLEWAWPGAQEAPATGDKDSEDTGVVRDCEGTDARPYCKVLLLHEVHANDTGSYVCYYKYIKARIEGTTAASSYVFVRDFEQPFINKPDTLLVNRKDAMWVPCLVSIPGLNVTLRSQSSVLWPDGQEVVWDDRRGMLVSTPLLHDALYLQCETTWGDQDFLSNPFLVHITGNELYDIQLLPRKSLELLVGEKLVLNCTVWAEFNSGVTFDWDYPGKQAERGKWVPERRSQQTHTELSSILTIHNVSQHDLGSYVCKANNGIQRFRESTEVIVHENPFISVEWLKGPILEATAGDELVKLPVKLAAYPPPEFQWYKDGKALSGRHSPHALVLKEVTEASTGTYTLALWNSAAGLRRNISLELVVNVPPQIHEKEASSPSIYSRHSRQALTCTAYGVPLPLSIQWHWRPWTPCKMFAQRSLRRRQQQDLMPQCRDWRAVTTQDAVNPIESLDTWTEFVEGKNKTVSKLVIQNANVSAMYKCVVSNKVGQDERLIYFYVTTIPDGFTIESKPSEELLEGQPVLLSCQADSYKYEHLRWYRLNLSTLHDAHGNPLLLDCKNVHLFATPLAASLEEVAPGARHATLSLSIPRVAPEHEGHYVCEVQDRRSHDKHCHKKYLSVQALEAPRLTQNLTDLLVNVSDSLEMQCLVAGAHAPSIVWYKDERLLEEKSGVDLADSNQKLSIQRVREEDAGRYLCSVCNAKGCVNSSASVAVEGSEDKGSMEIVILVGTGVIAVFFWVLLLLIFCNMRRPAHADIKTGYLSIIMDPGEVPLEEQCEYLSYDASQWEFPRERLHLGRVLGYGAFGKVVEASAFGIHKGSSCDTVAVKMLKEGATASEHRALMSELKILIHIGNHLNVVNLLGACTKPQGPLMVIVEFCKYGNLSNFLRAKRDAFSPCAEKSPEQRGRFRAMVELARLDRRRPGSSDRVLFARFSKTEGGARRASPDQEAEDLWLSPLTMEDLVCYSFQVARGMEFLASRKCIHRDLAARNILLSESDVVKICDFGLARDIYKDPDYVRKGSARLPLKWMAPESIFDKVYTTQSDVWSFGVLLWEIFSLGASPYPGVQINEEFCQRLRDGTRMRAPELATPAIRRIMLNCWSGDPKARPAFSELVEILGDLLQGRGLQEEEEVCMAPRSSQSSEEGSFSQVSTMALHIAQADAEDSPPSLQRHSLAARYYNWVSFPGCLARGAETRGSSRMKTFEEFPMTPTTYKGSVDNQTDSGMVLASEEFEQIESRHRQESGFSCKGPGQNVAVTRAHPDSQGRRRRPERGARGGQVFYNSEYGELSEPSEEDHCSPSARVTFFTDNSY

O=C1c2ccccc2-[n+]2ccc3c([nH]c4ccccc43)c21 [Fascaplysin]
2 to 3 µM: [1] | [2] | [3]
